Active and inactive are the calls of the source. The calls are words filed in the database; no cut-off is given here.
What was measured:
[1] = test system: Human immunodeficiency virus 1; assay: Antiviral activity against maraviroc-resistant HIV1 isolate CC185 at 100 times IC90 concentration; assay type: functional, organism-based
[2] = test system: Human immunodeficiency virus 1; assay: Antiviral activity against maraviroc-resistant HIV1 isolate CC185 at 10 times IC90 concentration; assay type: functional, organism-based
[3] = test system: Human immunodeficiency virus 1; assay: Antiviral activity against maraviroc-resistant HIV1 isolate CC185 at IC90 concentration; assay type: functional, organism-based
[4] = Apparent permeability from apical to basolateral side of human Caco2 cells; settings: Caco-2
[5] = Apparent permeability from basolateral to apical side of human Caco2 cells; settings: Caco-2
[6] = Intrinsic clearance in human liver microsomes assessed per mg of protein; assay type: ADME, Microsome
[7] = Octanol-buffer partition coefficient, log D of the compound
[8] = target: hERG (KCNH2) (Homo sapiens, UniProt Q12809); assay: in vitro; settings: HEK293 cells that express human ERG, probe [3H]-dofetilide
Sequence of hERG (KCNH2) (Q12809 whole entry): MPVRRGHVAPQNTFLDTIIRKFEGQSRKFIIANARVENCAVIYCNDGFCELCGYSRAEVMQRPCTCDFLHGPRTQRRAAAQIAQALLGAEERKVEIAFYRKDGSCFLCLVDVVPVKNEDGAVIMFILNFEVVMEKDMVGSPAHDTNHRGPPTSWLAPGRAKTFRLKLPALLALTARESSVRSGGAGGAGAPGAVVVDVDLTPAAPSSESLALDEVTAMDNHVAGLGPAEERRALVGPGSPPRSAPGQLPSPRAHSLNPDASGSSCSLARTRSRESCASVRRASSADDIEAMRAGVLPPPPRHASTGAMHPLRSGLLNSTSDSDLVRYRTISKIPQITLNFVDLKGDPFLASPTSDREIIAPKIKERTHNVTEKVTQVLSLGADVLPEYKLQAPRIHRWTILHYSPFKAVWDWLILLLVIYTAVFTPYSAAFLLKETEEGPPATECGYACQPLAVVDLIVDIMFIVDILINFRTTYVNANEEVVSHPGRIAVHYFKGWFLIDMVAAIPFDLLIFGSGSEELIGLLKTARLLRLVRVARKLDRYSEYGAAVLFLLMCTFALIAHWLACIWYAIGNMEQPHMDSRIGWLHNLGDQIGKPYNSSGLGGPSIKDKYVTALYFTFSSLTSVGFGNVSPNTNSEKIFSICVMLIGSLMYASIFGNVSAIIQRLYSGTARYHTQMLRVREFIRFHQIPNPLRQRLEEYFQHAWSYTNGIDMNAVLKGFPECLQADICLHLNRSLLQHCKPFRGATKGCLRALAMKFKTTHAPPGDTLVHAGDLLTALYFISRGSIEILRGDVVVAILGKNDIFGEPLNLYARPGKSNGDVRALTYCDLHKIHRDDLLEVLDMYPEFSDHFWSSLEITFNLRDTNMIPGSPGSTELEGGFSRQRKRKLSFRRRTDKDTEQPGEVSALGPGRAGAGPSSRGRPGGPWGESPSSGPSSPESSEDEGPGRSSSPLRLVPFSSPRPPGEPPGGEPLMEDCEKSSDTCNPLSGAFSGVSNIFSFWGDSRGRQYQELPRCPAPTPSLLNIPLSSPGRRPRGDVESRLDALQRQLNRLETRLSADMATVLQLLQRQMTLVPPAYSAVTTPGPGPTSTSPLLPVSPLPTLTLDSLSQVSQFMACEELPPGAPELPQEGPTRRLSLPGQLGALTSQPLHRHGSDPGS
Description: Displacement of [3H]-dofetilide from human ERG expressed in HEK293 cells at 300 nM

[9] = target: Voltage-gated inwardly rectifying potassium channel KCNH2 (Homo sapiens, UniProt Q12809)
Sequence of Voltage-gated inwardly rectifying potassium channel KCNH2 (Q12809 whole entry): as above
Description: Displacement of [3H]-dofetilide from human ERG expressed in HEK293 cells

[10] = Half life in dog at 0.5 mg/kg, iv and 0.5 mg/kg, po; assay type: ADME, organism-based, Canis lupus familiaris; settings: in vivo
[11] = Oral bioavailability in dog at 0.5 mg/kg; assay type: ADME, organism-based, Canis lupus familiaris; settings: in vivo
[12] = Volume of distribution in dog at 0.5 mg/kg, iv and 0.5 mg/kg, po; assay type: ADME, organism-based, Canis lupus familiaris; settings: in vivo
[13] = test system: Canis familiaris; assay: Unbound clearance in dog at 0.5 mg/kg, iv and 0.5 mg/kg, po; assay type: ADME, organism-based, Canis lupus familiaris; settings: in vivo
[14] = Clearance in dog at 0.5 mg/kg, iv and 0.5 mg/kg, po; assay type: ADME, organism-based, Canis lupus familiaris; settings: in vivo
[15] = Plasma protein binding in dog at 0.5 mg/kg, iv and 0.5 mg/kg, po; assay type: ADME, organism-based, Canis lupus familiaris; settings: read-out: PPB (converted)
[16] = Tmax in dog at 0.5 mg/kg, po; assay type: ADME, organism-based, Canis lupus familiaris; set-up: dose 0.5 mg/kg, route oral; settings: in vivo
[17] = Tmax in rat at 2 mg/kg, po; assay type: ADME, organism-based; set-up: dose 2 mg/kg, route oral; settings: in vivo
[18] = test system: Human immunodeficiency virus; assay: Antiviral activity against HIV Ba-L infected in PBMC; assay type: functional; settings: Human immunodeficiency virus 1, Ba-L
[19] = Plasma protein binding in rat at 1 mg/kg, iv and 2 mg/kg, po; assay type: ADME, organism-based; settings: read-out: PPB (converted)
[20] = Clearance in rat at 1 mg/kg, iv and 2 mg/kg, po; assay type: ADME, organism-based; settings: in vivo
[21] = test system: Rattus norvegicus; assay: Unbound clearance in rat at 1 mg/kg, iv and 2 mg/kg, po; assay type: ADME, organism-based; settings: in vivo
[22] = Half life in rat at 1 mg/kg, iv and 2 mg/kg, po; assay type: ADME, organism-based; settings: in vivo
[23] = Oral bioavailability in rat at 2 mg/kg; assay type: ADME, organism-based; settings: in vivo
[24] = Intrinsic clearance in rat liver microsomes assessed per mg of protein; assay type: ADME, Microsome
[25] = Intrinsic clearance in dog liver microsomes assessed per mg of protein; assay type: ADME, Canis lupus familiaris, Microsome
[26] = test system: Canis familiaris; assay: fCmax in dog at 0.5 mg/kg, po; assay type: ADME, organism-based, Canis lupus familiaris; set-up: dose 0.5 mg/kg, route oral; settings: in vivo
[27] = test system: Rattus norvegicus; assay: fCmax in rat at 2 mg/kg, po; assay type: ADME, organism-based; set-up: dose 2 mg/kg, route oral; settings: in vivo
[28] = Plasma protein binding in rat at 2 mg/kg, iv and 2 mg/kg, po; assay type: ADME, organism-based; settings: read-out: PPB (converted)
[29] = Clearance in rat at 2 mg/kg, iv and 2 mg/kg, po; assay type: ADME, organism-based; settings: in vivo
[30] = test system: Rattus norvegicus; assay: Unbound clearance in rat at 2 mg/kg, iv and 2 mg/kg, po; assay type: ADME, organism-based; settings: in vivo
[31] = Half life in rat at 2 mg/kg, iv and 2 mg/kg, po; assay type: ADME, organism-based; settings: in vivo

SMILES	Activity [1]	Activity [2]	Activity [3]	Papp A→B [4]	Papp B→A [5]	microsomal CLint [6]	logD [7]	inhibition at 0.3 µM [8]	other results
COC[C@@H](c1ccc(C(F)(F)F)cc1)N1CCN(C2(C)CCN(C(=O)c3c(C)ncnc3C)CC2)C[C@@H]1C	Active	Active	Active	–	–	–	–	–	–
CC(=O)N[C@@H](CCN1[C@@H]2CC[C@H]1C[C@@H](n1c(C)nc3c1CCN(C(C)=O)C3)C2)c1cccc(F)c1	–	–	–	< 1 ×10⁻⁶ cm/s	6 ×10⁻⁶ cm/s	< 8 µL/min/mg	1.4	–	–
CC(=O)N[C@@H](CCN1[C@@H]2CC[C@H]1C[C@@H](n1c(C)nc3c1CCN(C(=O)C(C)(C)C)C3)C2)c1cccc(F)c1	–	–	–	1 ×10⁻⁶ cm/s	24 ×10⁻⁶ cm/s	35 µL/min/mg	2.8	–	–
CC(=O)N[C@@H](CCN1[C@@H]2CC[C@H]1C[C@@H](n1c(C)nc3c1CN(C(=O)C(C)C)CC3)C2)c1ccccc1	–	–	–	< 1 ×10⁻⁶ cm/s	20 ×10⁻⁶ cm/s	42 µL/min/mg	1.6	0%	–
CCCCN1C(=O)[C@@H]([C@H](O)C2CCCCC2)NC(=O)C12CCN(Cc1ccc(Oc3ccc(C(=O)O)cc3)cc1)CC2	Active	Active	Active	–	–	–	–	–	–
COC(=O)N[C@@H](CCN1[C@@H]2CC[C@H]1C[C@@H](n1c(C)nc3c1CN(C(C)=O)CC3)C2)c1cccc(F)c1	–	–	–	6 ×10⁻⁶ cm/s	23 ×10⁻⁶ cm/s	24 µL/min/mg	1.7	28%	–
CC(=O)N[C@@H](CCN1[C@@H]2CC[C@H]1C[C@@H](n1c(C)nc3c1CN(C(C)C)CC3)C2)c1ccccc1	–	–	–	–	–	46 µL/min/mg	0.8	–	–
CCC(=O)N1CCc2c(nc(C)n2[C@H]2C[C@H]3CC[C@@H](C2)N3CC[C@H](NC(C)=O)c2cccc(F)c2)C1	Active	Active	Active	2 ×10⁻⁶ cm/s	13 ×10⁻⁶ cm/s	11 µL/min/mg	1.7	–	IC50 [9]: 5 µM
CC(=O)N[C@@H](CCN1[C@@H]2CC[C@H]1C[C@@H](n1c(C)nc3ccccc31)C2)c1ccccc1	–	–	–	13 ×10⁻⁶ cm/s	35 ×10⁻⁶ cm/s	–	–	–	IC50 [9]: 1.5 µM
CCCC(=O)N1CCc2c(nc(C)n2[C@H]2C[C@H]3CC[C@@H](C2)N3CC[C@H](NC(C)=O)c2cccc(F)c2)C1	–	–	–	1 ×10⁻⁶ cm/s	26 ×10⁻⁶ cm/s	25 µL/min/mg	2.2	–	–
COC(=O)N1CCc2nc(C)n([C@H]3C[C@H]4CC[C@@H](C3)N4CC[C@H](NC(C)=O)c3cccc(F)c3)c2C1	Active	Active	Active	–	–	19 µL/min/mg	–	–	half-life [10]: 3.8 h; bioavailability [11]: 42%; Vd [12]: 11.8 L/kg; CL [13]: 93 mL/min/kg; clearance [14]: 36 mL/min/kg; fraction unbound [15]: 0.38; Tmax [16]: 0.25 h; Tmax [17]: 2 h; IC90 [18]: 0.0016 µM; fraction unbound [19]: 0.29; clearance [20]: 46 mL/min/kg; CL [21]: 518 mL/min/kg; half-life [22]: 1.7 h; bioavailability [23]: 8%; microsomal CLint [24]: 15 µL/min/mg; microsomal CLint [25]: 32 µL/min/mg
Cc1nc2ccccc2n1[C@H]1C[C@H]2CC[C@@H](C1)N2CC[C@H](NC(=O)C1CCOCC1)c1ccccc1	Active	Active	Active	–	–	–	–	–	–
CC(=O)N[C@@H](CCN1[C@@H]2CC[C@H]1C[C@@H](n1c(C)nc3c1CCN(C(=O)C(C)C)C3)C2)c1cccc(F)c1 [PF-232798]	Active	Active	Active	2 ×10⁻⁶ cm/s	8 ×10⁻⁶ cm/s	13 µL/min/mg	2	–	half-life [10]: 3.4 h; bioavailability [11]: 31%; Vd [12]: 10.5 L/kg; CL [13]: 63 mL/min/kg; clearance [14]: 36 mL/min/kg; fraction unbound [15]: 0.53; Tmax [16]: 1 h; IC90 [18]: 0.002 µM; fraction unbound [19]: 0.38; clearance [20]: 201 mL/min/kg; CL [21]: 526 mL/min/kg; half-life [22]: 1.4 h; bioavailability [23]: < 5%; microsomal CLint [24]: < 6 µL/min/mg; microsomal CLint [25]: < 9 µL/min/mg; IC50 [9]: 12 µM
CC(=O)N[C@@H](CCN1[C@@H]2CC[C@H]1C[C@@H](n1c(C)nc3c1CN(S(C)(=O)=O)CC3)C2)c1ccccc1	–	–	–	–	–	24 µL/min/mg	0.9	10%	–
CCC(=O)N1CCc2nc(C)n([C@H]3C[C@H]4CC[C@@H](C3)N4CC[C@H](NC(C)=O)c3ccccc3)c2C1	–	–	–	< 1 ×10⁻⁶ cm/s	17 ×10⁻⁶ cm/s	< 7 µL/min/mg	1.2	13%	–
CC(=O)N[C@@H](CCN1[C@@H]2CC[C@H]1C[C@@H](n1c(C)nc3c1CN(C(C)=O)CC3)C2)c1ccccc1	–	–	–	< 1 ×10⁻⁶ cm/s	5 ×10⁻⁶ cm/s	< 7 µL/min/mg	0.6	0%	–
Cc1nnc(C2CC2)n1[C@H]1C[C@H]2CC[C@@H](C1)N2CC[C@H](NC(=O)C1CCC(F)(F)CC1)c1ccccc1	inactive	inactive	inactive	–	–	–	–	–	–
CC(=O)N[C@@H](CCN1[C@@H]2CC[C@H]1C[C@@H](n1c(C)nc3c1CN(C(=O)OC(C)C)CC3)C2)c1ccccc1	–	–	–	5 ×10⁻⁶ cm/s	28 ×10⁻⁶ cm/s	44 µL/min/mg	2.7	75%	–
CC(=O)N[C@@H](CCN1[C@@H]2CC[C@H]1C[C@@H](n1c(C)nc3c1CCN(c1ccncn1)C3)C2)c1cccc(F)c1	–	–	–	4 ×10⁻⁶ cm/s	15 ×10⁻⁶ cm/s	35 µL/min/mg	2.6	–	IC50 [9]: 0.01 µM
CC(=O)N1CC(C(=O)N[C@@H](CCN2[C@@H]3CC[C@H]2C[C@@H](n2c(C)nc4ccccc42)C3)c2ccccc2)C1	Active	Active	Active	–	–	–	–	–	–
CC(=O)N[C@@H](CCN1[C@@H]2CC[C@H]1C[C@@H](n1c(C)nc3c1CCN(c1cnccn1)C3)C2)c1cccc(F)c1	–	–	–	–	–	183 µL/min/mg	3	–	IC50 [9]: 1 µM
Cc1nnc(C(C)C)n1[C@H]1C[C@H]2CC[C@@H](C1)N2CC[C@H](NC(=O)C1CCC(F)(F)CC1)c1ccccc1 [MARAVIROC]	–	–	–	–	–	–	–	–	IC90 [18]: 0.0032 µM
Cc1nc(C(C)C)n([C@H]2C[C@H]3CC[C@@H](C2)N3CC[C@H](NC(=O)C2CCC(F)(F)CC2)c2ccccc2)n1	–	–	–	11 ×10⁻⁶ cm/s	26 ×10⁻⁶ cm/s	–	–	–	IC50 [9]: 4.23 µM
COC(=O)N[C@@H](CCN1[C@@H]2CC[C@H]1C[C@@H](n1c(C)nc3c1CN(C(C)=O)CC3)C2)c1ccccc1	–	–	–	4 ×10⁻⁶ cm/s	27 ×10⁻⁶ cm/s	42 µL/min/mg	1.4	57%	–
COC(=O)N[C@@H](CCN1[C@@H]2CC[C@H]1C[C@@H](n1c(C)nc3c1CN(C(=O)OC)CC3)C2)c1cccc(F)c1	–	–	–	17 ×10⁻⁶ cm/s	17 ×10⁻⁶ cm/s	92 µL/min/mg	2.6	69%	–
COC(=O)N1CCc2nc(C)n([C@H]3C[C@H]4CC[C@@H](C3)N4CC[C@H](NC(C)=O)c3ccccc3)c2C1	–	–	–	3 ×10⁻⁶ cm/s	16 ×10⁻⁶ cm/s	18 µL/min/mg	1.5	20%	–
CC(=O)N[C@@H](CCN1[C@@H]2CC[C@H]1C[C@@H](n1c(C)nc3c1CN(C)CC3)C2)c1ccccc1	–	–	–	< 1 ×10⁻⁶ cm/s	9 ×10⁻⁶ cm/s	< 7 µL/min/mg	0.4	0%	–
Cc1nnc(C(C)C)n1[C@H]1C[C@H]2CC[C@@H](C1)N2CC[C@H](NC(=O)C1CCC(F)(F)CC1)c1cccc(F)c1	inactive	inactive	inactive	–	–	–	–	–	–
COC(=O)N1CCc2c(nc(C)n2[C@H]2C[C@H]3CC[C@@H](C2)N3CC[C@H](NC(C)=O)c2cccc(F)c2)C1	Active	Active	Active	3 ×10⁻⁶ cm/s	11 ×10⁻⁶ cm/s	< 8 µL/min/mg	1.9	–	half-life [10]: 3.3 h; bioavailability [11]: 50%; Vd [12]: 9.9 L/kg; CL [13]: 150 mL/min/kg; clearance [14]: 36 mL/min/kg; fraction unbound [15]: 0.27; Tmax [16]: 0.5 h; Cmax_unbound [26]: 9 nM; Tmax [17]: 2 h; Cmax_unbound [27]: 208 nM; IC90 [18]: 0.0008 µM; bioavailability [23]: 20%; fraction unbound [28]: 0.32; clearance [29]: 91 mL/min/kg; CL [30]: 253 mL/min/kg; half-life [31]: 2.3 h; microsomal CLint [24]: < 6 µL/min/mg; microsomal CLint [25]: < 9 µL/min/mg; IC50 [9]: 2 µM

From ChEMBL document CHEMBL1649066, “An imidazopiperidine series of CCR5 antagonists for the treatment of HIV: the discovery of N-{(1S)-1-(3-fluorophenyl)-3-[(3-endo)-3-(5-isobutyryl-2-methyl-4,5,6,7-tetrahydro-1H-imidazo[4,5-c]pyridin-1-yl)-8-azabicyclo[3.2.1]oct-8-yl]propyl}acetamide (PF-232798)” (J Med Chem, 2011)
